Measurements published in PMC12571268, “Functional expression of a Mo-dependent formate dehydrogenase in Escherichia coli under aerobic conditions” (PLOS One, 2025).

Molecular target: T1, TsFDH (formate dehydrogenase of Thiobacillus sp. KNK65MA) (Thiobacillus sp. KNK65MA, UniProt Q76EB7)
T1 construct: gene fdh65MA; full-length synthetic gene codon-optimized for E. coli on pZE plasmid pGEN1395 in E. coli delta-lpd; clarified lysate; metal-independent
T1 sequence (Q76EB7 1-401): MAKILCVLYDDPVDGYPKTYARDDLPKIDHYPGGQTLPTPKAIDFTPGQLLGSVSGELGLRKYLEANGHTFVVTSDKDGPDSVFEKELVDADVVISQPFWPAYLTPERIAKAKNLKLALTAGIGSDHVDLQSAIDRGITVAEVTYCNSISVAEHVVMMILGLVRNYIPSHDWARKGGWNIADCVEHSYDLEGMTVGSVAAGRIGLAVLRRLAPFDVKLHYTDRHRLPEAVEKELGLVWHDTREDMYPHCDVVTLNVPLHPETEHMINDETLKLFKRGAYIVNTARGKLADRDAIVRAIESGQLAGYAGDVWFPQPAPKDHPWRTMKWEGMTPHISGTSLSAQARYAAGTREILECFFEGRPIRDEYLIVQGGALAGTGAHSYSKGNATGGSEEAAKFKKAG
Test: NADH formation at […] nm in clarified lysate, blank without formate subtracted
Type: biochemical
Conditions: 100 mM formate, 5 mM NAD+, 100 mM Tris pH 9.0; plasmid-free strains as control

O=CO [formate]
NADH formation at 340 nm in clarified lysate, blank without formate subtracted: lysates of the strains containing the FDH from Thiobacillus yielded higher specific activity
